Data on one molecule can be found in patent publication US9682925B2, “Cyclopropaneamine compound” (TAKEDA PHARMACEUTICAL COMPANY LIMITED, priority 2011, dated 2017).

Structures can show the parent of a compound that is named as a salt.

In one assay the target is T1, MAO-A (Homo sapiens, UniProt P21397).
T1 construct: purchased Sigma-Aldrich Co. LLC
T1 sequence (P21397 1-527): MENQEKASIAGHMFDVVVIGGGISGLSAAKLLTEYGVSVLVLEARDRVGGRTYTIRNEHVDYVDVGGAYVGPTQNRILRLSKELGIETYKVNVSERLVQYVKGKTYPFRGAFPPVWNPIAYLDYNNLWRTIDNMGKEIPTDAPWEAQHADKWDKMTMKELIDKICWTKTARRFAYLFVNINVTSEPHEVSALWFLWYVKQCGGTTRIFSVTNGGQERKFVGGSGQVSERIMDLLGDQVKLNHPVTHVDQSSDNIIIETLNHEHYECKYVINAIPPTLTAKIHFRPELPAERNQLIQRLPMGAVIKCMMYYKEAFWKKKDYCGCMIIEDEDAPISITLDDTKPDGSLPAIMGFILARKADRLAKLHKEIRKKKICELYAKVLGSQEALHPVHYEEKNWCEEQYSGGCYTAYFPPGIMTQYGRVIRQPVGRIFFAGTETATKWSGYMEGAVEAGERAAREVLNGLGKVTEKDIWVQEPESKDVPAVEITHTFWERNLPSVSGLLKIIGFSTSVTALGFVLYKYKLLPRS
The experiment in a line: Measurement of MAO-A inhibitory activity (MAO-Glo Assay). In kind it is biochemical. In outline: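 MAO-A (400 ng) was pre-incubated with compound 10 min at room temperature in 100 mM HEPES pH 7.5, 5% glycerol, then MAO substrate (160 μM stock) added for 60 min. Luciferin detection reagent, 20 min, luminescence; % inhibition against no-compound control minus no-enzyme blank.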

For assay [1], the system named is HEL92.1.7 acute myeloid leukemia cells. The assay is described as follows: Tumor growth suppressive effect test using HEL92.1.7 acute myeloid leukemia cell. To be noted: change rate in tumor volume, vehicle-treated group = 100%; 30 mg/kg orally once per day; dosing period 14 days. In kind it is in vivo, SCID mice. The protocol: Tumor Growth Suppressive Effect Test Using HEL92.1.7 Acute Myeloid Leukemia Cell
6-Week-old SCID mice were subcutaneously transplanted with 5×10^6 cells/100 μl of HEL92.1.7 acute myeloid leukemia cells, and the mice were grouped according to the body weight and tumor volume after 15 to 17 days. Vehicle (0.5% methylcellulose) or compound A, compound B or compound C was administered orally to mice (5 mice per group). The administration was once per day and performed continuously during the dosing period. Setting the change in tumor volume of the vehicle-treated group as 100%, the change rate in tumor volume of the compound-treated group (T/C %) was calculated. The tumor volume was determined by measuring the long diameter m and short diameter of the tumor with a vernier caliper, and calculating by the following calculation formula: (long diameter)×(short diameter)×(short diameter)/2.

The target in the next assay is T2, human LSD1(171-852) (Homo sapiens, UniProt O60341).
T2 construct: to give hLSD1(171-852) purified product; made in house; host or cells: Escherichia coli C43(DE3) pLysS
The assay is described as follows: Measurement of LSD1 inhibitory activity (time-resolved fluorescence, biotin-histone H3 mono methylated K4 peptide). In kind it is biochemical. To be noted: read-out: LSD1 IC50 value.

The target of another assay is T3, MAO-B (Homo sapiens, UniProt P27338).
T3 construct: purchased Sigma-Aldrich Co. LLC
T3 sequence (P27338 1-520): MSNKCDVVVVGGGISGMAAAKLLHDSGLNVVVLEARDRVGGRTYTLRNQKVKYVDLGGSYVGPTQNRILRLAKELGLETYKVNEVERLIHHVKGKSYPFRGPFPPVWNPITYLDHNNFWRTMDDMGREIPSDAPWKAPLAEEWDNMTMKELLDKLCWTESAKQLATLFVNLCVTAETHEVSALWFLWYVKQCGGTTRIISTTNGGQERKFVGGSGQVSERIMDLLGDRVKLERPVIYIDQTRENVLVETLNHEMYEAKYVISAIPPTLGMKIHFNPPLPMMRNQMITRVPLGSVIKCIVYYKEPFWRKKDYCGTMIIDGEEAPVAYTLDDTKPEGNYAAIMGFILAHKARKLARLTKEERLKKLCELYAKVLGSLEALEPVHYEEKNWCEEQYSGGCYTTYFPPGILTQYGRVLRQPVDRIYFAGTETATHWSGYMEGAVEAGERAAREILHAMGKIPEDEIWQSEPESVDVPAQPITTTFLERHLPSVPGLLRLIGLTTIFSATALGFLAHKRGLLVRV
The experiment in a line: Measurement of MAO-B inhibitory activity (MAO-Glo Assay). In kind it is biochemical. In outline:
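Percent inhibition was calculated from luciferin-based luminescence, corrected with a blank lacking enzyme and a control lacking compound. The reaction ran 60 min at room temperature after adding MAO substrate (16 µM as added). This followed a 10 min compound–enzyme preincubation in HEPES pH 7.5 buffer.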

For the molecule `O=C(Nc1ccc([C@@H]2C[C@H]2NCC2CC2)cc1)c1cn[nH]c1` (relative stereo) [Example 79, N-(4-{trans-2-[(cyclopropylmethyl)amino]cyclopropyl}phenyl)-1H-pyrazole-4-carboxamide hydrochloride], the IC50 was more than 10 µM against MAO-A, less than 0.1 µM on human LSD1(171-852) and more than 10 µM against MAO-B. Also, the “T/C (%)” value in assay [1] came out at 46.42%.

By IC50 is commonly meant the point on the concentration scale where inhibition reaches its midpoint.
